Patent publication US20260092085A1, “SYNTHETIC TRIPLEX PEPTIDE NUCLEIC ACID-BASED INHIBITORS FOR CANCER THERAPY” (University of Connecticut, priority 2022, published 2026)

Test system: Mcl-1 and Caspase-3
Assay: Western blot of Mcl-1 and Caspase-3 in U2932 cells
Assay type: cell-based, human
Conditions: U2932, 500 nM
Description: FIGS. 3A-F show cell culture-based functional assay in U2932 lymphoma cells. (3A) γtcPNA-155-TAMRA uptake in the U2932 lymphoma cell line: Representative flow cytometry traces of TAMRA fluorescence in U2932 cells after treatment with 500 nM dose of γtcPNA-155-TAMRA for 48 hours. The data was analyzed by FlowJo software. (3B) Normalized miR-155 gene expression levels in U2932 after treatment with phosphate buffer saline (PBS) as a control and with 500 nM dose of Scr-γtcPNA-155, PNA-155, γPNA-155 and γtcPNA-155 for 48 hours compared to average control U6 (n=3), data represented as mean±standard error mean (SEM), Statistical analysis was performed using Unpaired two-tailed t-test. […] (3E) Representative western blot of Mcl-1 and its quantification (n=3 technical replicate) and (3F) Caspase-3 protein and its quantification (n=3 technical replicate) in U2932 cell line after treatment with 500 nM of Scr-γtcPNA-155, PNA-155 and γtcPNA-155 for 48 hours. […] Numbers above western blot panels represent relative quantification of the respective bands using ImageJ software and normalized relative to loading control and treatment control.
FIGS. 5A-B show representative western blot of Mcl-1 (5A) and Caspase-3 (5B) and its quantification (n=3) obtained from U2932 cell line after treatment with 500 nM of Scr-γtcPNA-155, γPNA-155 and γtcPNA-155 for 48 hours. […]

γtcPNA-155: serine gamma tail-clamp anti-miR-155 PNA, RR-TJJJJ-OOO-ACCCCTATCACGATTAGCATTAA-RR, SEQ ID NO: 3 (all peptide nucleic acid (PNA); serine gamma PNA, tail-clamp TJJJJ via linkers, Arg-Arg at both ends)
downregulation of Mcl-1 protein (western blot): 50%
upregulation of Caspase-3 protein (western blot): 80%
